Results as given in ChEMBL document CHEMBL1770124, “Synthesis and in vitro evaluation of [18F]fluoroethyl triazole labelled [Tyr3]octreotate analogues using click chemistry” (Bioorg Med Chem Lett, 2011).
Where a SMILES comes first, the peptide text is derived from it. Bridges are numbered along the chain shown (N, C = ends). [ ]: non-standard residue; d: D form. The star is where a group is joined. Threoninol(2S,3R) = C[C@@H](O)[C@H](CO)N*

Columns and labels:
[1] = Displacement of [111In]-DTPA-octreotide from somatostatin receptor in rat AR42J cells; type: cell-based; conditions: ar-42j
[2] = Partition coefficient, log D of the compound; type: physicochemical; conditions: octanol/water
[3] = Displacement of [125I]-somatostatin-14 from somatostatin receptor in rat AR42J cells; type: cell-based; conditions: ar-42j

| IC50 [1] [µM] | logD [2] | SMILES | IC50 [3] [nM] |
| --- | --- | --- | --- |
| 0.0029 | -1.5 | C[C@@H](O)[C@H](NC(=O)[C@@H]1CSSC[C@H](NC(=O)[C@@H](Cc2ccccc2)NC(=O)CCc2cn(CC[18F])nn2)C(=O)N[C@@H](Cc2ccc(O)cc2)C(=O)N[C@H](Cc2c[nH]c3ccccc23)C(=O)N[C@@H](CCCCN)C(=O)N[C@@H]([C@@H](C)O)C(=O)N1)C(=O)O |  |
| 0.0018 |  | C#CCCC(=O)N[C@H](Cc1ccccc1)C(=O)N[C@H]1CSSC[C@@H](C(=O)N[C@H](C(=O)O)[C@@H](C)O)NC(=O)[C@H]([C@@H](C)O)NC(=O)[C@H](CCCCN)NC(=O)[C@@H](Cc2c[nH]c3ccccc23)NC(=O)[C@H](Cc2ccc(O)cc2)NC1=O |  |
| 0.00523 |  | C#CC(=O)NCC(=O)NCCOCCOCCOCCOCCOCCOCCC(=O)N[C@H](Cc1ccccc1)C(=O)N[C@H]1CSSC[C@@H](C(=O)N[C@H](C(=O)O)[C@@H](C)O)NC(=O)[C@H]([C@@H](C)O)NC(=O)[C@H](CCCCN)NC(=O)[C@@H](Cc2c[nH]c3ccccc23)NC(=O)[C@H](Cc2ccc(O)cc2)NC1=O |  |
| 0.0108 | -2.68 | C[C@@H](O)[C@H](NC(=O)[C@@H]1CSSC[C@H](NC(=O)[C@@H](Cc2ccccc2)NC(=O)CCOCCOCCOCCOCCOCCOCCNC(=O)CNC(=O)c2cn(CC[18F])nn2)C(=O)N[C@@H](Cc2ccc(O)cc2)C(=O)N[C@H](Cc2c[nH]c3ccccc23)C(=O)N[C@@H](CCCCN)C(=O)N[C@@H]([C@@H](C)O)C(=O)N1)C(=O)O |  |
| 0.0132 | -2.77 | C[C@@H](O)[C@H](NC(=O)[C@@H]1CSSC[C@H](NC(=O)[C@@H](Cc2ccccc2)NC(=O)CCOCCOCCOCCOCCOCCOCCNC(=O)CCc2cn(CC[18F])nn2)C(=O)N[C@@H](Cc2ccc(O)cc2)C(=O)N[C@H](Cc2c[nH]c3ccccc23)C(=O)N[C@@H](CCCCN)C(=O)N[C@@H]([C@@H](C)O)C(=O)N1)C(=O)O |  |
| 0.0014 |  | C#CC(=O)NCC(=O)N[C@H](Cc1ccccc1)C(=O)N[C@H]1CSSC[C@@H](C(=O)N[C@H](C(=O)O)[C@@H](C)O)NC(=O)[C@H]([C@@H](C)O)NC(=O)[C@H](CCCCN)NC(=O)[C@@H](Cc2c[nH]c3ccccc23)NC(=O)[C@H](Cc2ccc(O)cc2)NC1=O |  |
|  |  | C[C@@H](O)[C@H](CO)NC(=O)[C@@H]1CSSC[C@H](NC(=O)[C@H](N)Cc2ccccc2)C(=O)N[C@@H](Cc2ccccc2)C(=O)N[C@H](Cc2c[nH]c3ccccc23)C(=O)N[C@@H](CCCCN)C(=O)N[C@@H]([C@@H](C)O)C(=O)N1 (H-[dF]CF[dW]KTC-{Threoninol(2S,3R)}; disulfide 2-7) | 14.7 |
| > 10000 | -1.14 | C[C@@H](O)[C@@H]1NC(=O)[C@@H](NC(=O)[C@@H](Cc2cc3ccccc3[nH]2)NC(=O)CNC(=O)CCNC(=O)c2cn(CC[18F])nn2)CSSC[C@@H](C(=O)N[C@@H](CCCCN)C(=O)O)NC(=O)[C@H](Cc2ccc(O)cc2)NC(=O)[C@H]([C@@H](C)O)NC(=O)[C@@H](Cc2ccccc2)NC1=O |  |
| 0.004 | -1.83 | C[C@@H](O)[C@H](NC(=O)[C@@H]1CSSC[C@H](NC(=O)[C@@H](Cc2ccccc2)NC(=O)CNC(=O)c2cn(CC[18F])nn2)C(=O)N[C@@H](Cc2ccc(O)cc2)C(=O)N[C@H](Cc2c[nH]c3ccccc23)C(=O)N[C@@H](CCCCN)C(=O)N[C@@H]([C@@H](C)O)C(=O)N1)C(=O)O |  |
| 0.001 |  | C#CC(=O)NCCC(=O)NCC(=O)N[C@H](Cc1ccccc1)C(=O)N[C@H]1CSSC[C@@H](C(=O)N[C@H](C(=O)O)[C@@H](C)O)NC(=O)[C@H]([C@@H](C)O)NC(=O)[C@H](CCCCN)NC(=O)[C@@H](Cc2c[nH]c3ccccc23)NC(=O)[C@H](Cc2ccc(O)cc2)NC1=O |  |
| 0.0051 |  | C#CCCC(=O)NCCOCCOCCOCCOCCOCCOCCC(=O)N[C@H](Cc1ccccc1)C(=O)N[C@H]1CSSC[C@@H](C(=O)N[C@H](C(=O)O)[C@@H](C)O)NC(=O)[C@H]([C@@H](C)O)NC(=O)[C@H](CCCCN)NC(=O)[C@@H](Cc2c[nH]c3ccccc23)NC(=O)[C@H](Cc2ccc(O)cc2)NC1=O |  |
